The structures appear in SMILES notation. Numbers after ± are expanded uncertainties.

This data set in a line: wn = mass fraction of the nth substance listed. Particulars: 308.2 K, 101 kPa, Liquid, Cone and plate viscometry.

For `C[C@H](N)C(=O)[O-].C[N+](C)(C)CCO` [2-hydroxy-N,N,N-trimethylethanaminium L-alaninate] + O, the viscosity (usually the internal friction of a fluid under shear) is reported as 0.87 ± 0.02 mPa·s (w1 = 0.05), 0.98 ± 0.03 mPa·s (w1 = 0.1), 1.32 ± 0.05 mPa·s (w1 = 0.2) and 1.92 ± 0.09 mPa·s (w1 = 0.3).

Turning to `C[N+](C)(C)CCO.O=C([O-])[C@@H]1CCCN1` [2-hydroxy-N,N,N-trimethylethanaminium L-prolinate] + O, the viscosity runs as follows: (w1 = 0.05) 0.89 ± 0.02 mPa·s; (w1 = 0.1) 1.06 ± 0.03 mPa·s; (w1 = 0.2) 1.49 ± 0.06 mPa·s; (w1 = 0.3) 2.2 ± 0.11 mPa·s.

As for `C[N+](C)(C)CCO.NCC(=O)[O-]` [2-hydroxy-N,N,N-trimethylethanaminium glycinate] + O, the viscosity by setting is: (w1 = 0.05) 0.85 ± 0.02 mPa·s; (w1 = 0.1) 0.96 ± 0.03 mPa·s; (w1 = 0.2) 1.24 ± 0.04 mPa·s; (w1 = 0.3) 1.7 ± 0.07 mPa·s.

Values taken from the NIST ThermoML archive (doi:10.1016/j.fluid.2017.04.001).
